Tests used:
NSG PANC1 mice = test: Orthotopic pancreatic cancer metastasis model, daily IP treatment; assay type: in vivo
Description: Because pancreatic cancer patients suffer particular high mortality from metastasis, the in vivo efficacy of metarrestin against metastasis in an orthotopic pancreatic cancer metastasis model was evaluated. The 3D PANC1 cell spheres model, deployed in NOD/interleukin 2 receptor common gamma chain (Il2rγ)^null (NSG) PANC-1 mice (see Suemizu et al., “Identification of a key molecular regulator of liver metastasis in human pancreatic carcinoma using a novel quantitative model of metastasis in NOD/SCID/gammacnull (NOG) mice.” Int. J. Oncol., (31): 741-51 (2007), incorporated herein in its entirety), recapitulates human cancer progression and metastatic phenotype of the disease without the limitations of early death due to complications of local invasion, such as gastric outlet obstruction or impingement of the common bile duct. Sixty thousand 3D luciferase-expressing PANC1-luc cell spheres were injected orthotopically into the pancreas of NSG mice. […] By 8 weeks, macrometastasis on the liver surface were visible.
Four weeks after inoculation, mice were treated once daily with metarrestin (5 mg/kg or 25 mg/kg) or vehicle via IP injections, continuing for six weeks. […] The treatment was well-tolerated, and animals maintained their body weight (FIG. 11).
To determine whether PNCs in treated animals were impacted by metarrestin, PNC prevalence in primary tumors and metastatic lesions from control and metarrestin-treated animals (25 mg/kg) were examined 12 weeks after tumor inoculation. […] PNC prevalence in non-treated animals was higher in these groups of tumors and metastatic lesions than in those harvested at an earlier time (FIG. 6) or in cultured PANC1 cells (FIG. 2), consistent with previous findings that late-stage cancers have higher PNC prevalence.
Pancreatic cancer model: 60,000 luciferase-tagged PANC1 spheres were injected into the pancreas of Nod/IL2gamma (null) mice (obtained from NCI Mouse Repository, Frederick, Md.; on ACUC-approved animal protocol SB-211-2). At 4 weeks after inoculation, mice were treated once daily with metarrestin (5 mg/kg or 25 mg/kg) or vehicle via IP injections, which extended out for 6 more weeks. Mice were injected with luciferin 5 minutes before being sacrificed by CO2 euthanasia. Organs were then individually dissected, subjected to quantitative xenogene imaging, and fixed with 4% non-buffered formaldehyde. Impact of metastatic burden was calculated and graphed as liver and lung/primary tumor ratios based on a five-minute photon count for the liver normalized to liver weight (g), which was then compared to the average photon count per weight (g) of the primary pancreatic tumor of the same animal. This calculation corrects for variations in luciferin injection, mouse heart rate, and perfusion. For overexpression of eEF1A2, 6*10^4 PANC1 3D spheres transduced with eEF1A2 (eEF1A2 OE) were injected into the tail of the pancreas of NSG mice. Mice of both groups were harvested at 6 weeks after implantation and subjected to necropsy. Liver metastasis/mm^2 was calculated as the sum of the […] of the individual metastases. Tumor volume (mm^3) was calculated as (L×W2), where L=length (mm) and W=width (mm). Animal survival was measured from the first day of treatment until death. […]

KPC mice = test: Veterinary histopathology and clinical chemistry, KPC mice; assay type: in vivo
PANC1, PC3M, and HeLa = test: DNA damage response, cell cycle and apoptosis; assay type: cell-based
Description: Genotoxic agents that intercalate into or alkylate DNA, such as actinomycin D, induce similar nucleolar segregation to that observed with metarrestin treatment. To determine whether metarrestin induces nucleolar changes through genotoxic effects or general cytotoxicity, the impact of metarrestin on DNA damage repair, cell cycle, and general Pol II transcription status in three cell lines, PANC1, PC3M, and HeLa, was evaluated. […]

[1] = 5 or 25 mg/kg IP once daily for six weeks
[2] = female, KPC, mouse, in vivo, 3 months
[3] = male, KPC, mouse, in vivo, 3 months

Structure (SMILES): N=c1c2c(-c3ccccc3)c(-c3ccccc3)n(Cc3ccccc3)c2ncn1[C@H]1CC[C@H](O)CC1 [metarrestin]
- Metastatic burden in liver (NSG PANC1 mice; 25 mg/kg IP once daily for six weeks, vs vehicle, p<0.01): decrease in metastatic burden
- Metastatic burden in lung (NSG PANC1 mice; 25 mg/kg IP once daily for six weeks, vs vehicle, p<0.05): decrease in metastatic burden
- PNC prevalence in metastatic and primary tumor tissues (NSG PANC1 mice; 25 mg/kg, 12 weeks after tumor inoculation, p<0.01): significant reduction of PNC prevalence
- Primary tumor weight (NSG PANC1 mice; [1]): not significantly changed
- Tolerability, body weight (NSG PANC1 mice; [1]): well-tolerated
- Ileum segmented filamentous bacteria (KPC mice; KPC-Metarrestin Female F01): 3/3
- Ileum segmented filamentous bacteria (KPC mice; KPC-Metarrestin Male M01): 4/4
- Adrenal hyperplasia, subcapsular cell (KPC mice; [2]): 2/3
- Duodenum dilatation (KPC mice; [2]): 3/3
- Femur marrow hyperplasia, granulocytic (KPC mice; [2]): 1/3
- Gall Bladder hyperplasia, papillary (KPC mice; [2]): 3/3
- Kidney hydronephrosis (KPC mice; [2]): 1/3
- Kidney mineralization (KPC mice; [2]): 1/3
- Liver deformity (KPC mice; [2]): 1/3
- Liver inflammation, subacute (KPC mice; [2]): 3/3
- Lung lymphocytic infiltrate (KPC mice; [2]): 3/3
- Pancreas duct, dilation (KPC mice; [2]): 3/3
- Pancreas neoplasm, graded (KPC mice; [2]): 3/3
- Salivary Gland lymphocytic infiltrate (KPC mice; [2]): 2/3
- Spleen extramedullary hematopoiesis, erythrocytic, increased erythropoiesis (KPC mice; [2]): 1/3
- Spleen fibrosis (KPC mice; [2]): 1/3
- Spleen melanin (KPC mice; [2]): 1/3
- Stomach, glandular, hyperplasia, foveolar cells (KPC mice; [2]): 3/3
- Thyroid ectopic thymus (KPC mice; [2]): 1/3
- Vertebra hyperplasia, granulocytic, marrow (KPC mice; [2]): 1/3
- Adrenal lipogenic pigment (KPC mice; [3]): 3/4
- Cecum proliferative typhlitis (KPC mice; [3]): 1/4
- Duodenum dilatation (KPC mice; [3]): 1/4
- Duodenum hyperplasia, crypt (KPC mice; [3]): 1/4
- Femur marrow hyperplasia, granulocytic (KPC mice; [3]): 4/4
- Gall Bladder hyperplasia, papillary (KPC mice; [3]): 4/4
- Heart dilation, atrium (KPC mice; [3]): 1/4
- Heart mineralization (KPC mice; [3]): 1/4
- Kidney mineralization (KPC mice; [3]): 1/4
- Kidney vacuolation. proximal tubule (KPC mice; [3]): 1/4
- LN, mandibular hyperplasia, lymphoid (KPC mice; [3]): 1/4
- LN, mandibular plasmacytosis (KPC mice; [3]): 1/4
- Liver inflammation, subacute (KPC mice; [3]): 2/4
- Liver lymphocytic infiltrate (KPC mice; [3]): 2/4
- Lung lymphocytic infiltrate (KPC mice; [3]): 3/4
- Pancreas duct, dilation (KPC mice; [3]): 4/4
- Pancreas neoplasm, graded (KPC mice; [3]): 4/4
- Skin/Subcutis inflammation, chronic active (KPC mice; [3]): 1/4
- Spleen extramedullary hematopoiesis, erythrocytic, increased erythropoiesis (KPC mice; [3]): 1/4
- Spleen fibrosis (KPC mice; [3]): 2/4
- Stomach, glandular, hyperplasia, foveolar cells (KPC mice; [3]): 2/4
- Stomach, nonglandular, erosion (KPC mice; [3]): 1/4
- Thyroid hyperplasia, papillary (KPC mice; [3]): 1/4
- Vertebra hyperplasia, granulocytic, marrow (KPC mice; [3]): 4/4
- Histopathological or laboratory abnormalities (KPC mice; mouse, in vivo, 10 mg/kg): failed to discern any histopathological or laboratory abnormalities
- Histopathological or laboratory abnormalities (KPC mice; mouse, in vivo, po, 25 mg/kg): failed to discern any histopathological or laboratory abnormalities
- Apoptotic index, cells undergoing apoptosis (PANC1, PC3M, and HeLa): less than 1%
- DNA damage response signature factors (PANC1, PC3M, and HeLa; 1 μM, 24 hours): neither phosphorylated yH2AX or p53BP1, nor phosphorylated p53
- Cell cycle pattern (DNA content, flow cytometry) (PANC1, PC3M, and HeLa; two different concentrations within 24 hours): did not show a significant alteration of cell cycle pattern
